According to patent publication US12545637B2, “Extrahepatic targeted cationic lipid compound with high efficiency and low toxicity and its composition” (BEIJING YOUCARE KECHUANG PHARMACEUTICAL TECHNOLOGY CO., LTD., priority 2023, dated 2026):

Columns and labels:
[1] = Particle size and polydispersity index (PDI) of lipid nanoparticles by dynamic light scattering; assay type: physicochemical
Method: The particle size and polydispersity index (PDI) were determined by dynamic light scattering using Malvern laser particle size analyzer.
10 μL of the liposome solution was weighed, diluted to 1 mL with RNase-free deionized water, and added to the sample pool. Each sample was measured in triplicate. The measurement conditions were: […] scattering angle, and 25° C.

293T cells [2] = experiment: Fluorescent detection of Fluc-mRNA (cell transfection efficiency of LNP formulations); assay type: cell-based
293T cells [3] = experiment: Cell survival rate assay (CCK-8); assay type: cell-based
Outline: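 293T cells seeded at 10,000 cells/well, cultured overnight, then exposed 24 h to LNP carrying 1.5 μg Fluc-mRNA (cationic:neutral:structured:PEG-type lipid 49:10:39.5:1.5) or Lipofectamine 3000. Viability read by CCK-8, 1 h incubation, absorbance at 450 nm.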

female BALB/C mice = experiment: In vivo imaging in mice of Fluc-mRNA LNP formulations (mRNA expression and duration)
Outline: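 Female BALB/C mice (4-6 weeks, 17-19 g) received LNP carrying […] Fluc-mRNA intramuscularly. At 6h, 24 h, 48h and 7d, fluorescent imaging substrate was given intraperitoneally and after 5 minutes average radiance, as a measure of expressed protein, was imaged on an IVIS Spectrum system.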

293T cells [4] = experiment: Fluorescent detection of Fluc-mRNA (cell transfection efficiency of LNP formulations); assay type: cell-based; remark: listed apart in the source

CCCCCCCCC(CCCCCCCC)COC(=O)CCCCCN(CCCO)CCN(CCCO)CCCCCC(=O)OCC(CCCCCCCC)CCCCCCCC [YK-422, di(2-octyldecyl) 6,6′-(ethane-1,2-diyl-bis((3-hydroxypropyl)azanediyl))dihexanoate]
PDI ([1]; LNP formulation of the cationic lipid, 25° C.): 13.9% | Particle size ([1]; LNP formulation of the cationic lipid/DSPC/cholesterol/DMG-PEG2000 49:10:39.5:1.5, 25° C.): 146 nm | Relative light unit (RLU) (293T cells [2]; LNP with 0.3 μg Fluc-mRNA, 96-well plate, 24 hours): 6432971 RLU | cell transfection efficiency, times that of YK-415 (293T cells [2]; ratio vs YK-415): 21.59 | cell transfection efficiency, times that of YK-417 (293T cells [2]; ratio vs YK-417): 54.85 | cell transfection efficiency, times that of YK-418 (293T cells [2]; ratio vs YK-418): 57.82 | cell transfection efficiency, times that of YK-424 (293T cells [2]; ratio vs YK-424): 2.23 | RLU value, times that of compound 21 (293T cells [2]; ratio vs compound 21): 4.26 | RLU value, times that of compound 23 (293T cells [2]; ratio vs compound 23): 4.59 | Cell survival rate (293T cells [3]; LNP with 1.5 μg Fluc-mRNA, 24 hours, CCK-8): 70.48% | cell survival rate higher than ALC-0315 (293T cells [3]; difference vs ALC-0315): 23.27% | cell survival rate higher than HIMA (293T cells [3]; difference vs HIMA (HHMA)): 6.21% | cell survival rate higher than Lipofectamine 3000 (293T cells [3]; difference vs Lipofectamine 3000): 48.82% | cell survival rate higher than SM-102 (293T cells [3]; difference vs SM-102): 2.58% | cell survival rate higher than YK-404 (293T cells [3]; difference vs YK-404): 28.36% | cell survival rate higher than YK-405 (293T cells [3]; difference vs YK-405): 28.62% | cell survival rate higher than YK-406 (293T cells [3]; difference vs YK-406): 45.52% | cell survival rate higher than YK-408 (293T cells [3]; difference vs YK-408): 28.17% | cell survival rate higher than YK-409 (293T cells [3]; difference vs YK-409): 24.37% | cell survival rate higher than YK-410 (293T cells [3]; difference vs YK-410): 25.56% | cell survival rate higher than YK-411 (293T cells [3]; difference vs YK-411): 54.15% | cell survival rate higher than YK-412 (293T cells [3]; difference vs YK-412): 16.34% | cell survival rate higher than YK-413 (293T cells [3]; difference vs YK-413): 23.28% | cell survival rate higher than YK-414 (293T cells [3]; difference vs YK-414): 41.73% | cell survival rate higher than YK-415 (293T cells [3]; difference vs YK-415): 9.32% | cell survival rate higher than YK-416 (293T cells [3]; difference vs YK-416): 29.51% | cell survival rate higher than YK-417 (293T cells [3]; difference vs YK-417): 49.14% | cell survival rate higher than YK-418 (293T cells [3]; difference vs YK-418): 49.43% | cell survival rate higher than YK-419 (293T cells [3]; difference vs YK-419): 31.56% | cell survival rate higher than YK-420 (293T cells [3]; difference vs YK-420): 34.89% | cell survival rate higher than YK-421 (293T cells [3]; difference vs YK-421): 34.77% | cell survival rate higher than YK-424 (293T cells [3]; difference vs YK-424): 42.55% | cell survival rate higher than compound 21 (293T cells [3]; difference vs compound 21): 2.64% | cell survival rate higher than compound 23 (293T cells [3]; difference vs compound 23): 1.37% | cytotoxicity reduced compared with YK-411 (293T cells [3]; rounded summary statement vs YK-411): 50% | average radiation intensity, times that of ALC-0315 (female BALB/C mice; 6 h): 1.58 | average radiation intensity, times that of HHMA (female BALB/C mice; 6 h): 2.01 | average radiation intensity, times that of SM-102 (female BALB/C mice; 6 h): 1.92 | average radiation intensity, times that of compound 21 (female BALB/C mice; 6 h): 2.21 | average radiation intensity, times that of compound 23 (female BALB/C mice; 6 h): 2.29 | expression amount in mice, times that of YK-415 (female BALB/C mice; 6 h): 11.28 | expression amount in mice, times that of YK-417 (female BALB/C mice; 6 h): 21.98 | mRNA expression in mice, times that of YK-411 (female BALB/C mice; 6 h): 227.25 | average radiation intensity, times that of ALC-0315 (female BALB/C mice; 24 h): 3.73 | average radiation intensity, times that of HHMA (female BALB/C mice; 24 h): 5.90 | average radiation intensity, times that of SM-102 (female BALB/C mice; 24 h): 5.74 | average radiation intensity, times that of compound 21 (female BALB/C mice; 24 h): 6.38 | average radiation intensity, times that of compound 23 (female BALB/C mice; 24 h): 7.01 | expression amount in mice, times that of YK-415 (female BALB/C mice; 24 h): 10.98 | expression amount in mice, times that of YK-417 (female BALB/C mice; 24 h): 35.43 | mRNA expression in mice, times that of YK-411 (female BALB/C mice; 24 h): 350.21 | average radiation intensity, times that of ALC-0315 (female BALB/C mice; 48 h): 6.76 | average radiation intensity, times that of HHMA (female BALB/C mice; 48 h): 8.14 | average radiation intensity, times that of SM-102 (female BALB/C mice; 48 h): 8.26 | average radiation intensity, times that of compound 21 (female BALB/C mice; 48 h): 8.60 | average radiation intensity, times that of compound 23 (female BALB/C mice; 48 h): 8.24 | expression amount in mice, times that of YK-415 (female BALB/C mice; 48 h): 17.19 | expression amount in mice, times that of YK-417 (female BALB/C mice; 48 h): 38.52 | mRNA expression in mice, times that of YK-411 (female BALB/C mice; 48 h): 278.33 | average radiation intensity, times that of ALC-0315 (female BALB/C mice; 7 d): 1.35 | average radiation intensity, times that of HHMA (female BALB/C mice; 7 d): 1.59 | average radiation intensity, times that of SM-102 (female BALB/C mice; 7 d): 1.41 | average radiation intensity, times that of compound 21 (female BALB/C mice; 7 d): 1.49 | average radiation intensity, times that of compound 23 (female BALB/C mice; 7 d): 1.55 | expression amount in mice, times that of YK-415 (female BALB/C mice; 7 d): 2.34 | expression amount in mice, times that of YK-417 (female BALB/C mice; 7 d): 4.15 | mRNA expression in mice, times that of YK-411 (female BALB/C mice; 7 d): 19.74 | average radiation intensity, 6 h (female BALB/C mice; Fluc-mRNA LNP intramuscular, 6 h after administration): 1329410 | average radiation intensity, 24 h (female BALB/C mice; Fluc-mRNA LNP intramuscular, 24 h after administration): 708120 | average radiation intensity, 48 h (female BALB/C mice; Fluc-mRNA LNP intramuscular, 48 h after administration): 271372 | average radiation intensity, 7 d (female BALB/C mice; Fluc-mRNA LNP intramuscular, 7 d after administration): 9476 | RLU value, times that of ALC-0315 (293T cells [4]; ratio vs ALC-0315): 2.94 | RLU value, times that of HHMA (293T cells [4]; ratio vs HHMA): 3.09 | RLU value, times that of Lipofectamine 3000 (293T cells [4]; ratio vs Lipofectamine 3000): 5.36 | RLU value, times that of YK-009 (293T cells [4]; ratio vs YK-009): 1.25 | RLU value, times that of YK-405 (293T cells [4]; ratio vs YK-405): 2.01 | RLU value, times that of YK-406 (293T cells [4]; ratio vs YK-406): 82.21 | RLU value, times that of YK-408 (293T cells [4]; ratio vs YK-408): 4.36 | RLU value, times that of YK-409 (293T cells [4]; ratio vs YK-409): 9.60 | RLU value, times that of YK-410 (293T cells [4]; ratio vs YK-410): 15.77 | cell transfection efficiency, times that of YK-412 (293T cells [4]; ratio vs YK-412): 1.91 | cell transfection efficiency, times that of YK-413 (293T cells [4]; ratio vs YK-413): 4.67 | cell transfection efficiency, times that of YK-414 (293T cells [4]; ratio vs YK-414): 14.49 | cell transfection efficiency, times that of YK-416 (293T cells [4]; ratio vs YK-416): 1.62 | cell transfection efficiency, times that of YK-419 (293T cells [4]; ratio vs YK-419): 2.03 | cell transfection efficiency, times that of YK-420 (293T cells [4]; ratio vs YK-420): 1.60 | cell transfection efficiency, times that of YK-421 (293T cells [4]; ratio vs YK-421): 13.79
